Laboratory results from US20250145665A1, “MACROCYCLIC PEPTIDES USEFUL AS MODULATORS OF TNF ALPHA” (Bristol-Myers Squibb Company, priority 2023, published 2025).
Where two headings read alike, the source gives them in different places. Starred links: 1 amine or outer side, 2 acyl side, 3 side chain; linkers in the order of their positions; H or OH if unused. Positions of bridges follow the written chain, without caps; N, C: chain ends. Non-standard residues stand in square brackets, D forms with d. Residues, ends and D or L forms follow the SMILES beside them. *: point of attachment. Bip(4'-NHCO-C6H4-3-CH2COOH) = N[C@@H](Cc1ccc(-c2ccc(NC(=O)c3cccc(CC(=O)O)c3)cc2)cc1)C(=O)O; Bip(4'-NHCO-C6H4-4-CH2COOH) = N[C@@H](Cc1ccc(-c2ccc(NC(=O)c3ccc(CC(=O)O)cc3)cc2)cc1)C(=O)O; dArg(ω-(2S)-2,3-diOHpropyl) = N=C(NCCC[C@@H](N)C(=O)O)NC[C@H](O)CO; Bip(4'-NH) = O=C([C@H](Cc1ccc(-c2ccc(N[*:3])cc2)cc1)N[*:1])[*:2]; dArg(ω-(3-HO-benzyl)) = N=C(NCCC[C@@H](N)C(=O)O)NCc1cccc(O)c1; Indazole3carbonyl(1-CH2COOH) = O=C(O)Cn1nc(C(=O)*)c2ccccc21; Bip(4'-COOH) = N[C@@H](Cc1ccc(-c2ccc(C(=O)O)cc2)cc1)C(=O)O; Indole3carbonyl(1-CH2COOH) = O=C(O)Cn1cc(C(=O)*)c2ccccc21; X36 = N=C(NCCC[C@@H](N[*:1])C(=O)[*:2])NCc1cccc(C(=O)O)c1; Ala(imidazol-2-yl) = N[C@@H](Cc1ncc[nH]1)C(=O)O; Ala(morpholin-4-yl) = N[C@@H](CN1CCOCC1)C(=O)O; Benzoyl(3-OCH2COOH) = O=C(O)COc1cccc(C(=O)*)c1; Phe(3-CONH2) = NC(=O)c1cccc(C[C@H](N)C(=O)O)c1; Bip = N[C@@H](Cc1ccc(-c2ccccc2)cc1)C(=O)O; 2Pal = N[C@@H](Cc1ccccn1)C(=O)O; Cha = N[C@@H](CC1CCCCC1)C(=O)O; Sar = CNCC(=O)O

Biological target: TNFα (Homo sapiens, UniProt P01375)
Sequence (P01375 77-233 limits assumed): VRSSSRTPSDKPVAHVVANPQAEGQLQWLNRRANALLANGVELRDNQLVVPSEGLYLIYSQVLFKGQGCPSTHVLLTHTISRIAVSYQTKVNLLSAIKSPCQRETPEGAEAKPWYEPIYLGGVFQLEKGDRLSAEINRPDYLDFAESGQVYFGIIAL
Experiment: TNF-Induced HEK-Blue Assay
Format: cell-based
[1] = HEK-Blue-CD40L cells, NF-kB-driven secreted alkaline phosphatase reporter, TNFα 0.5 ng/ml, 18 h, read-out: TNF induced HEK-Blue assay IC50 value

| SMILES | IC50 [1] [nM] | IC50 [nM] |
| --- | --- | --- |
| CC(C)C[C@@H]1NC(=O)[C@H](CCCNC(=N)N)NC(=O)[C@H](C(C)C)NC(=O)[C@@H]2CCCN2C(=O)[C@H](C(C)C)NC(=O)[C@@H](CCCNC(=N)NC[C@H](O)CO)NC(=O)[C@H](CC(=O)O)NC(=O)[C@@H]2CCCN2C(=O)CN(C)C(=O)[C@H](Cc2ccc(-c3ccc(NC(=O)c4cccc(CC(=O)O)c4)cc3)cc2)NC(=O)[C@H](Cc2ccc(-c3ccccc3)cc2)NC(=O)[C@H](CN2CCOCC2)NC(=O)CSC[C@@H](C(=O)NCC(N)=O)NC1=O [Example 537] ({CH2CO}-[Ala(morpholin-4-yl)][Bip][Bip(4'-NHCO-C6H4-3-CH2COOH)][Sar]PD[dArg(ω-(2S)-2,3-diOHpropyl)]VPVRLCG-NH2; thioether N-13) | 50 to 200 | – |
| CC(C)C[C@@H]1NC(=O)[C@H](CCCNC(=N)N)NC(=O)[C@H](C(C)C)NC(=O)[C@@H]2CCCN2C(=O)[C@H](C(C)C)NC(=O)[C@@H](CCCNC(=N)NC[C@H](O)CO)NC(=O)[C@H](CC(=O)O)NC(=O)[C@@H]2CCCN2C(=O)CN(C)C(=O)[C@H](Cc2ccc(-c3ccc(NC(=O)c4cccc(OCC(=O)O)c4)cc3)cc2)NC(=O)[C@H](Cc2ccc(-c3ccccc3)cc2)NC(=O)[C@H](CN2CCOCC2)NC(=O)CSC[C@@H](C(=O)NCC(N)=O)NC1=O [Example 538] ({CH2CO}-[Ala(morpholin-4-yl)][Bip][Bip(4'-NH)](Benzoyl(3-OCH2COOH))[Sar]PD[dArg(ω-(2S)-2,3-diOHpropyl)]VPVRLCG-NH2; thioether N-13) | 200 to 2000 | – |
| CC(C)C[C@@H]1NC(=O)[C@H](CCCNC(=N)N)NC(=O)[C@H](C(C)C)NC(=O)[C@@H]2CCCN2C(=O)[C@H](C(C)C)NC(=O)[C@@H](CCCNC(=N)NC[C@H](O)CO)NC(=O)[C@H](CC(=O)O)NC(=O)[C@@H]2CCCN2C(=O)CN(C)C(=O)[C@H](Cc2ccc(-c3ccc(NC(=O)c4cn(CC(=O)O)c5ccccc45)cc3)cc2)NC(=O)[C@H](Cc2ccc(-c3ccccc3)cc2)NC(=O)[C@H](CN2CCOCC2)NC(=O)CSC[C@@H](C(=O)NCC(N)=O)NC1=O [Example 540] ({CH2CO}-[Ala(morpholin-4-yl)][Bip][Bip(4'-NH)](Indole3carbonyl(1-CH2COOH))[Sar]PD[dArg(ω-(2S)-2,3-diOHpropyl)]VPVRLCG-NH2; thioether N-13) | – | < 50 |
| CC(C)C[C@@H]1NC(=O)[C@H](CCCNC(=N)N)NC(=O)[C@H](C(C)C)NC(=O)[C@@H]2CCCN2C(=O)[C@H](C(C)C)NC(=O)[C@@H](CCCNC(=N)NCc2cccc(C(=O)O)c2)NC(=O)[C@H](CC(=O)O)NC(=O)[C@@H]2CCCN2C(=O)CN(C)C(=O)[C@H](Cc2ccc(-c3ccc(NC(=O)c4cccc(CC(=O)O)c4)cc3)cc2)NC(=O)[C@H](Cc2ccc(-c3ccccc3)cc2)NC(=O)[C@H](CN2CCOCC2)NC(=O)CSC[C@@H](C(=O)NCC(N)=O)NC1=O [Example 543] ({CH2CO}-[Ala(morpholin-4-yl)][Bip][Bip(4'-NHCO-C6H4-3-CH2COOH)][Sar]PD[X36]VPVRLCG-NH2; thioether N-13) | 200 to 2000 | – |
| CC(C)C[C@@H]1NC(=O)[C@H](CCCNC(=N)N)NC(=O)[C@H](C(C)C)NC(=O)[C@@H]2CCCN2C(=O)[C@H](C(C)C)NC(=O)[C@@H](CCCNC(=N)NCc2cccc(C(=O)O)c2)NC(=O)[C@H](CC(=O)O)NC(=O)[C@@H]2CCCN2C(=O)CN(C)C(=O)[C@H](Cc2ccc(-c3ccc(NC(=O)c4cccc(OCC(=O)O)c4)cc3)cc2)NC(=O)[C@H](Cc2ccc(-c3ccccc3)cc2)NC(=O)[C@H](CN2CCOCC2)NC(=O)CSC[C@@H](C(=O)NCC(N)=O)NC1=O [Example 544] ({CH2CO}-[Ala(morpholin-4-yl)][Bip][Bip(4'-NH)](Benzoyl(3-OCH2COOH))[Sar]PD[X36]VPVRLCG-NH2; thioether N-13) | 200 to 2000 | – |
| CC(C)C[C@@H]1NC(=O)[C@H](Cc2ccc(O)cc2)NC(=O)[C@H](C(C)C)NC(=O)[C@@H]2CCCN2C(=O)[C@H](C(C)C)NC(=O)[C@@H](CCCNC(=N)NC[C@H](O)CO)NC(=O)[C@H](CC(=O)O)NC(=O)[C@@H]2CCCN2C(=O)CN(C)C(=O)[C@H](Cc2ccc(-c3ccc(NC(=O)c4nn(CC(=O)O)c5ccccc45)cc3)cc2)NC(=O)[C@H](Cc2ccc(-c3ccc(C(=O)O)cc3)cc2)NC(=O)[C@H](CC2CCCCC2)NC(=O)CSC[C@@H](C(=O)NCC(N)=O)NC1=O [Example 545] ({CH2CO}-[Cha][Bip(4'-COOH)][Bip(4'-NH)](Indazole3carbonyl(1-CH2COOH))[Sar]PD[dArg(ω-(2S)-2,3-diOHpropyl)]VPVYLCG-NH2; thioether N-13) | – | 50 to 200 |
| CC(C)C[C@@H]1NC(=O)[C@H](Cc2cccc(C(N)=O)c2)NC(=O)[C@H](C(C)C)NC(=O)[C@@H]2CCCN2C(=O)[C@H](C(C)C)NC(=O)[C@@H](CCCNC(=N)NC[C@H](O)CO)NC(=O)[C@H](CC(=O)O)NC(=O)[C@H](Cc2ccc(O)cc2)NC(=O)CN(C)C(=O)[C@H](Cc2ccc(-c3ccc(NC(=O)c4nn(CC(=O)O)c5ccccc45)cc3)cc2)NC(=O)[C@H](Cc2ccc(-c3ccccc3)cc2)NC(=O)[C@H](CN2CCOCC2)NC(=O)CSC[C@@H](C(=O)NCC(N)=O)NC1=O [Example 546] ({CH2CO}-[Ala(morpholin-4-yl)][Bip][Bip(4'-NH)](Indazole3carbonyl(1-CH2COOH))[Sar]YD[dArg(ω-(2S)-2,3-diOHpropyl)]VPV[Phe(3-CONH2)]LCG-NH2; thioether N-13) | – | < 50 |
| CC(C)C[C@@H]1NC(=O)[C@H](Cc2cccc(C(N)=O)c2)NC(=O)[C@H](C(C)C)NC(=O)[C@@H]2CCCN2C(=O)[C@H](C(C)C)NC(=O)[C@@H](CCCNC(=N)NC[C@H](O)CO)NC(=O)[C@H](CC(=O)O)NC(=O)[C@H](Cc2ccc(O)cc2)NC(=O)CN(C)C(=O)[C@H](Cc2ccc(-c3ccc(NC(=O)c4cn(CC(=O)O)c5ccccc45)cc3)cc2)NC(=O)[C@H](Cc2ccc(-c3ccccc3)cc2)NC(=O)[C@H](CN2CCOCC2)NC(=O)CSC[C@@H](C(=O)NCC(N)=O)NC1=O [Example 547] ({CH2CO}-[Ala(morpholin-4-yl)][Bip][Bip(4'-NH)](Indole3carbonyl(1-CH2COOH))[Sar]YD[dArg(ω-(2S)-2,3-diOHpropyl)]VPV[Phe(3-CONH2)]LCG-NH2; thioether N-13) | – | < 50 |
| CC(C)C[C@@H]1NC(=O)[C@H](Cc2cccc(C(N)=O)c2)NC(=O)[C@H](C(C)C)NC(=O)[C@@H]2CCCN2C(=O)[C@H](C(C)C)NC(=O)[C@@H](CCCNC(=N)NC[C@H](O)CO)NC(=O)[C@H](CC(=O)O)NC(=O)[C@H](Cc2ccc(O)cc2)NC(=O)CN(C)C(=O)[C@H](Cc2ccc(-c3ccc(NC(=O)c4ccc(CC(=O)O)cc4)cc3)cc2)NC(=O)[C@H](Cc2ccc(-c3ccccc3)cc2)NC(=O)[C@H](CN2CCOCC2)NC(=O)CSC[C@@H](C(=O)NCC(N)=O)NC1=O [Example 548] ({CH2CO}-[Ala(morpholin-4-yl)][Bip][Bip(4'-NHCO-C6H4-4-CH2COOH)][Sar]YD[dArg(ω-(2S)-2,3-diOHpropyl)]VPV[Phe(3-CONH2)]LCG-NH2; thioether N-13) | 50 to 200 | – |
| CC(C)C[C@@H]1NC(=O)[C@H](Cc2cccc(C(N)=O)c2)NC(=O)[C@H](C(C)C)NC(=O)[C@@H]2CCCN2C(=O)[C@H](C(C)C)NC(=O)[C@@H](CCCNC(=N)NC[C@H](O)CO)NC(=O)[C@H](CC(=O)O)NC(=O)[C@H](Cc2ccc(O)cc2)NC(=O)CN(C)C(=O)[C@H](Cc2ccc(-c3ccc(NC(=O)c4cccc(CC(=O)O)c4)cc3)cc2)NC(=O)[C@H](Cc2ccc(-c3ccccc3)cc2)NC(=O)[C@H](CN2CCOCC2)NC(=O)CSC[C@@H](C(=O)NCC(N)=O)NC1=O [Example 549] ({CH2CO}-[Ala(morpholin-4-yl)][Bip][Bip(4'-NHCO-C6H4-3-CH2COOH)][Sar]YD[dArg(ω-(2S)-2,3-diOHpropyl)]VPV[Phe(3-CONH2)]LCG-NH2; thioether N-13) | 50 to 200 | – |
| CC(C)C[C@@H]1NC(=O)[C@H](Cc2cccc(C(N)=O)c2)NC(=O)[C@H](C(C)C)NC(=O)[C@@H]2CCCN2C(=O)[C@H](C(C)C)NC(=O)[C@@H](CCCNC(=N)NC[C@H](O)CO)NC(=O)[C@H](CC(=O)O)NC(=O)[C@H](Cc2ccc(O)cc2)NC(=O)CN(C)C(=O)[C@H](Cc2ccc(-c3ccc(NC(=O)c4cccc(OCC(=O)O)c4)cc3)cc2)NC(=O)[C@H](Cc2ccc(-c3ccccc3)cc2)NC(=O)[C@H](CN2CCOCC2)NC(=O)CSC[C@@H](C(=O)NCC(N)=O)NC1=O [Example 550] ({CH2CO}-[Ala(morpholin-4-yl)][Bip][Bip(4'-NH)](Benzoyl(3-OCH2COOH))[Sar]YD[dArg(ω-(2S)-2,3-diOHpropyl)]VPV[Phe(3-CONH2)]LCG-NH2; thioether N-13) | 50 to 200 | – |
| CC(C)C[C@@H]1NC(=O)[C@H](Cc2ncc[nH]2)NC(=O)[C@H](C(C)C)NC(=O)[C@@H]2CCCN2C(=O)[C@H](C(C)C)NC(=O)[C@@H](CCCNC(=N)NCc2cccc(O)c2)NC(=O)[C@H](CC(=O)O)NC(=O)[C@H](Cc2ccccn2)NC(=O)CN(C)C(=O)[C@H](Cc2ccc(-c3ccc(NC(=O)c4nn(CC(=O)O)c5ccccc45)cc3)cc2)NC(=O)[C@H](Cc2ccc(-c3ccc(C(=O)O)cc3)cc2)NC(=O)[C@H](CC2CCCCC2)NC(=O)CSC[C@@H](C(=O)NCC(N)=O)NC1=O [Example 551] ({CH2CO}-[Cha][Bip(4'-COOH)][Bip(4'-NH)](Indazole3carbonyl(1-CH2COOH))[Sar][2Pal]D[dArg(ω-(3-HO-benzyl))]VPV[Ala(imidazol-2-yl)]LCG-NH2; thioether N-13) | – | < 50 |
| CC(C)C[C@@H]1NC(=O)[C@H](Cc2ncc[nH]2)NC(=O)[C@H](C(C)C)NC(=O)[C@@H]2CCCN2C(=O)[C@H](C(C)C)NC(=O)[C@@H](CCCNC(=N)NCc2cccc(O)c2)NC(=O)[C@H](CC(=O)O)NC(=O)[C@H](Cc2ccccn2)NC(=O)CN(C)C(=O)[C@H](Cc2ccc(-c3ccc(NC(=O)c4cn(CC(=O)O)c5ccccc45)cc3)cc2)NC(=O)[C@H](Cc2ccc(-c3ccc(C(=O)O)cc3)cc2)NC(=O)[C@H](CC2CCCCC2)NC(=O)CSC[C@@H](C(=O)NCC(N)=O)NC1=O [Example 552] ({CH2CO}-[Cha][Bip(4'-COOH)][Bip(4'-NH)](Indole3carbonyl(1-CH2COOH))[Sar][2Pal]D[dArg(ω-(3-HO-benzyl))]VPV[Ala(imidazol-2-yl)]LCG-NH2; thioether N-13) | – | 50 to 200 |
